Data: patent publication US10858360B2, “Tricyclic gyrase inhibitors” (priority 2011, dated 2020)
≈ marks a conversion by molar mass, not a printed value.

Tests used:
E. coli ATCC 25922 = assay: MIC, E. coli ATCC 25922; type: cell-based; details: Alamar Blue read after overnight incubation at 35° C.; for MIC Ec: E. coli; for MIC: Escherichia coli, ATCC25922, E. coli
S. aureus ATCC 13709 = assay: MIC, S. aureus ATCC 13709 (Alamar Blue broth microdilution); type: cell-based; details: Alamar Blue read after overnight incubation at 35° C.; for MIC Sa: S. aureus; for MIC: Staphylococcus aureus, ATCC13709, S. aureus

| Compound | MIC Ec (E. coli ATCC 25922) [µg/mL] | MIC Sa (S. aureus ATCC 13709) [µg/mL] | MIC (E. coli ATCC 25922) [µg/mL] | MIC (S. aureus ATCC 13709) [µg/mL] |
| --- | --- | --- | --- | --- |
| Cc1ncc(Oc2nc(N3CC(N)C4(CC4)C3)c3c(n2)[nH]c2c(N)cc(F)cc23)cn1 (centres unmarked) [2.9] | 16 (≈ 38.1 µM) | 16 (≈ 38.1 µM) |  |  |
| CNc1cccc2c1[nH]c1nc(Sc3cnc4cccnc4c3)nc(N3CCCCC(N)C3)c12 (centres unmarked) [1.45] |  |  | 4 (≈ 8.5 µM) | 1 (≈ 2.12 µM) |
| CNc1cc(F)cc2c1[nH]c1nc(Oc3cnc(Cl)nc3)nc(N3CC4CC(N)C4C3)c12 (centres unmarked) [4.378] | ≤0.5 | ≤0.5 |  |  |
| CNc1cc(F)cc2c1[nH]c1nc(Oc3cnc(SC)nc3)nc(N3CC4C(CN)C4C3)c12 (centres unmarked) [4.197] | ≤0.5 | ≤0.5 |  |  |
| CNc1cc(F)cc2c1[nH]c1nc(Oc3cncnc3)nc(N3CC4C(N)C4C3)c12 (centres unmarked) [4.010] | ≤0.5 | ≤0.5 |  |  |
| CNc1cc(F)cc2c1[nH]c1nc(Oc3cnc(N4CC(O)C4)nc3)nc(N3C[C@H](N)C4(CC4)C3)c12 [4.299] |  |  | 4 (≈ 8.14 µM) | ≤ 0.5 |
| CNc1cc(F)cc2c1[nH]c1nc(Oc3ccc(C#N)nc3)nc(N3CCC4(C[C@H]4N)C3)c12 (some centres unmarked) [4.334] | 8 (≈ 18 µM) | ≤0.5 |  |  |
| CNc1cc(F)cc2c1[nH]c1nc(Oc3cnc(C(C)(C)O)nc3)nc(N3CC4CC3C[C@@H]4N)c12 (some centres unmarked) [4.411] |  |  | ≤ 0.5 | ≤ 0.5 |
| CNc1cccc2c1[nH]c1nc(Oc3cncnc3)nc(N3CCC(N)CC3)c12 [3.64] |  |  | 64 (≈ 164 µM) | 16 (≈ 41 µM) |
| CNc1cc(F)cc2c1[nH]c1nc(Oc3cnc(C#N)c(C)c3)nc(N3CC4CC3C[C@@H]4N)c12 (some centres unmarked) [4.435] |  |  | ≤ 0.5 | ≤ 0.5 |
| CNc1cccc2c1[nH]c1nc(Sc3cnc4cccnc4c3)nc(N3CCC(C(O)c4cccs4)CC3)c12 (centres unmarked) [1.70] |  |  | > 32 | 1 (≈ 1.81 µM) |
| CNc1cc(F)cc2c1[nH]c1nc(Oc3ccc4c(c3)C(=O)NC4)nc(N3CC4CCNC4C3)c12 (centres unmarked) [4.269] | 4 (≈ 8.45 µM) | ≤0.5 |  |  |
| CNc1cc(F)cc2c1[nH]c1nc(Oc3cnc(NC4CC4)nc3)nc(N3CCC(N)C3)c12 (centres unmarked) [4.222] | ≤0.5 | ≤0.5 |  |  |
| CNc1cc(F)cc2c1[nH]c1nc(Oc3cnc(CO)nc3)nc(N3C[C@@H]4C[C@H]3C[C@@H]4N)c12 [4.391] |  |  | ≤ 0.5 | ≤ 0.5 |
| CNc1cccc2c1[nH]c1nc(Oc3cncc(C#N)c3)nc(N3C[C@@H](N)C4(CC4)C3)c12 [3.44] |  |  | 16 (≈ 37.5 µM) | 8 (≈ 18.8 µM) |
| CNc1cc(F)cc2c1[nH]c1nc(Oc3cncc(F)c3)nc(N3CCC4(C[C@H]4N)C3)c12 (some centres unmarked) [4.062] |  |  | ≤ 0.5 | ≤ 0.5 |
| CNc1cccc2c1[nH]c1nc(Sc3cnc4cccnc4c3)nc(N3CCC4(CC4N)C3)c12 (centres unmarked) [1.25] | 4 (≈ 8.54 µM) |  |  | ≤ 0.5 |
| CNc1cc(F)cc2c1[nH]c1nc(Oc3cnc4c(c3)ncn4C)nc(N3CC4C[C@@H](N)C4C3)c12 (some centres unmarked) [4.227] |  |  | 1 (≈ 2.11 µM) | ≤ 0.5 |
| CNc1cc(F)cc2c1[nH]c1nc(Oc3cncc(C(N)=O)c3)nc(N3CC4C(N)C4C3)c12 (centres unmarked) [4.237] |  |  | 2 (≈ 4.46 µM) | ≤ 0.5 |
| CNc1cc(F)cc2c1[nH]c1nc(Oc3ccc4nc[nH]c(=O)c4c3)nc(N3CC4C(N)C4C3)c12 (centres unmarked) [4.231] | 2 (≈ 4.23 µM) | ≤0.5 |  |  |
| CNc1cc(F)cc2c1[nH]c1nc(Oc3cnc(N)nc3)nc(N3CC(N)C4(CC4)C3)c12 (centres unmarked) [4.177] | ≤0.5 | ≤0.5 |  |  |
| CNc1cc(F)cc2c1[nH]c1nc(Oc3cnc(C4CC4)nc3)nc(N3CC4CCNC3C4)c12 (centres unmarked) [4.248] |  |  | ≤ 0.5 | ≤ 0.5 |
| CNc1cc(F)cc2c1[nH]c1nc(Oc3cnc(SC)nc3)nc(N3C[C@H](N)C4(CC4)C3)c12 [4.194] |  |  | ≤ 0.5 | ≤ 0.5 |
| CNc1cc(F)cc2c1[nH]c1nc(Oc3cncc(OC)c3)nc(N3C[C@H](N)C4(CC4)C3)c12 [4.165] |  |  | 1 (≈ 2.22 µM) | ≤ 0.5 |
| CNc1cc(F)cc2c1[nH]c1nc(Oc3ccc4c(c3)C(=O)NC43CC3)nc(N3CC4(CCC4N)C3)c12 (centres unmarked) [4.380] | 16 (≈ 32 µM) | 4 (≈ 8.01 µM) |  |  |
